These compounds were tested against T1, CYP121A1 (Mycobacterium tuberculosis, UniProt P9WPP7). Settings: heme Soret peak position, ligand-free to apparent saturation.
T1 construct: made in house
T1 sequence (P9WPP7 whole entry): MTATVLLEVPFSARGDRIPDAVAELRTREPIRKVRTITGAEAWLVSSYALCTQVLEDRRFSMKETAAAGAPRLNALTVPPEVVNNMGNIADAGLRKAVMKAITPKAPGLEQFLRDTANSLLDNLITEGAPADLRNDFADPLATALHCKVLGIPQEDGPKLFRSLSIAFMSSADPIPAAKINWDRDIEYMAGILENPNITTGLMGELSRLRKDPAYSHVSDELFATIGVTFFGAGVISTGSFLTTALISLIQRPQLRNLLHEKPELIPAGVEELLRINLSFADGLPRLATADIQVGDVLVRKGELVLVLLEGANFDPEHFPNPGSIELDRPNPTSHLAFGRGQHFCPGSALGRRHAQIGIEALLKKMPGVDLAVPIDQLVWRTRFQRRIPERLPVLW
Type: binding
`c1ccc(-c2nn(-c3ccccc3)cc2Cn2ccnc2)cc1` [7a, (1,3-Diphenyl)-4-((1,3-imidazol-1-yl)methyl)-1H-pyrazole] was tested, and the Soret peak shift was 416–423.5 nm. With `Fc1ccc(-c2nn(-c3ccccc3)cc2Cn2ccnc2)cc1` [7b, 4-((1H-Imidazol-1-yl)methyl)-3-(4-fluorophenyl)-1-phenyl-1H-pyrazole] the Soret peak shift was 416–423.5 nm. With `Clc1ccc(-c2nn(-c3ccccc3)cc2Cn2ccnc2)cc1` [7c, 4-((1H-Imidazol-1-yl)methyl)-3-(4-chlorophenyl)-1-phenyl-1H-pyrazole] the Soret peak shift was 416–422 nm. `Cc1ccc(-c2nn(-c3ccccc3)cc2Cn2ccnc2)cc1` [7d, 4-((1H-Imidazol-1-yl)methyl)-1-phenyl-3-(p-tolyl)-1H-pyrazole] was tested, and the Soret peak shift was 416–421.5 nm. In the case of `COc1ccc(-c2nn(-c3ccccc3)cc2Cn2ccnc2)cc1` [7e, 4-((1H-Imidazol-1-yl)methyl)-3-(4-methoxyphenyl)-1-phenyl-1H-pyrazole], the Soret peak shift is reported as 416–421 nm. `Brc1ccc(-c2nn(-c3ccccc3)cc2Cn2ccnc2)cc1` [7f, 4-((1H-Imidazole-1-yl)methyl)-3-(4-bromophenyl)-1-phenyl-1H-pyrazole] was tested, and the Soret peak shift was 416–420 nm. In the case of `Ic1ccc(-c2nn(-c3ccccc3)cc2Cn2ccnc2)cc1` [7g, 4-((1H-Imidazole-1-yl)methyl)-3-(4-iodophenyl)-1-phenyl-1H-pyrazole], the Soret peak shift is reported as 416–422 nm. In the case of `N#Cc1ccc(-c2nn(-c3ccccc3)cc2Cn2ccnc2)cc1` [7h, 4-(4-((1H-Imidazol-1-yl)methyl)-1-phenyl-1H-pyrazol-3-yl)benzonitrile], the Soret peak shift is reported as 416–418 nm. In the case of `c1ccc(-c2nn(-c3ccccc3)cc2Cn2cncn2)cc1` [8a, 1-((1,3-Diphenyl-1H-pyrazol-4-yl)methyl)-1H-[1,2,4]triazole], the Soret peak shift is reported as 416–422 nm. In the case of `Fc1ccc(-c2nn(-c3ccccc3)cc2Cn2cncn2)cc1` [8b, 1-((3-(4-Fluorophenyl)-1-phenyl-1H-pyrazole-4-yl)methyl)-1H-1,2,4-triazole], the Soret peak shift is reported as 416–423 nm. In the case of `Clc1ccc(-c2nn(-c3ccccc3)cc2Cn2cncn2)cc1` [8c, 1-((3-(4-Chlorophenyl)-1-phenyl-1H-pyrazole-4-yl)methyl)-1H-1,2,4-triazole], the Soret peak shift is reported as 416–421 nm. For `Cc1ccc(-c2nn(-c3ccccc3)cc2Cn2cncn2)cc1` [8d, 1((1-Phenyl-3-(p-tolyl)-1H-pyrazol-4-yl)methyl)-1H-1,2,4-triazole], the Soret peak shift was 416–418 nm. For `COc1ccc(-c2nn(-c3ccccc3)cc2Cn2cncn2)cc1` [8e, 1-((3-(4-Methoxyphenyl)-1-phenyl-1H-pyrazol-4-yl)methyl)-1H-1,2,4-triazole], the Soret peak shift was 416–420 nm. In the case of `Brc1ccc(-c2nn(-c3ccccc3)cc2Cn2cncn2)cc1` [8f, 1-((3-(4-Bromophenyl)-1-phenyl-1H-pyrazol-4-yl)methyl)-1H-1,2,4-triazole], the Soret peak shift is reported as 416–417.5 nm. In the case of `Ic1ccc(-c2nn(-c3ccccc3)cc2Cn2cncn2)cc1` [8g, 1-((3-(4-Iodophenyl)-1-phenyl-1H-pyrazol-4-yl)methyl)-1H-1,2,4-triazole], the Soret peak shift is reported as “no binding”. For `N#Cc1ccc(-c2nn(-c3ccccc3)cc2Cn2cncn2)cc1` [8h], the Soret peak shift was “no binding”. For `O=C(NCCn1ccnc1)c1cn(-c2ccccc2)nc1-c1ccc(F)cc1` [13b, N-(2-(1H-Imidazol-1-yl)ethyl)-3-(4-fluorophenyl)-1-phenyl-1H-pyrazole-4-carboxamide], the Soret peak shift was “no binding”. With `O=C(NCCn1ccnc1)c1cn(-c2ccccc2)nc1-c1ccc(Cl)cc1` [13c, N-(2-(1H-Imidazol-1-yl)ethyl)-3-(4-chlorophenyl)-1-phenyl-1H-pyrazole-4-carboxamide] the Soret peak shift was “no binding”.

Source: article PMC5748275, “Novel Aryl Substituted Pyrazoles as Small Molecule Inhibitors of Cytochrome P450 CYP121A1: Synthesis and Antimycobacterial Evaluation” (Journal of Medicinal Chemistry, 2017)
